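96-well plates; 48 h exposure; 5 concentrations. Endpoints by linear interpolation between flanking doses. Not reached: highest tested concentration assigned. At the GI50, growth is halved. TGI marks complete inhibition of growth.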
Experiments:
Test in all cases: DTP human tumour cell line panel, 48 h
[1] = system: SF-539 CNS
[2] = system: MOLT-4 leukemia
[3] = system: OVCAR-8 ovarian
[4] = system: HCC-2998 colon
[5] = system: NCI-H226 lung
[6] = system: SR leukemia
[7] = system: TK-10 renal
[8] = system: NCI/ADR-RES ovarian
[9] = system: MDA-MB-231 breast
[10] = system: OVCAR-3 ovarian

Structure (SMILES) | TGI [1] [µM] | TGI [2] [µM] | TGI [3] [µM] | TGI [4] [µM] | TGI [5] [µM] | TGI [6] [µM] | TGI [7] [µM] | TGI [8] [µM] | TGI [9] [µM] | TGI [10] [µM] | GI50 [1] [µM] | GI50 [2] [µM] | GI50 [3] [µM] | GI50 [4] [µM] | GI50 [5] [µM] | GI50 [6] [µM] | GI50 [7] [µM] | GI50 [8] [µM] | GI50 [9] [µM] | GI50 [10] [µM]
C[n+]1c(-c2ccc(/C=N/Nc3ccnc(N/N=C/c4ccc(-c5cn6ccsc6[n+]5C)cc4)n3)cc2)cn2ccsc21 | > 100 | 64.9 | > 100 | > 100 | 60.6 | > 100 | > 100 | > 100 | > 100 | > 100 |  |  |  |  |  |  |  |  |  | 
CCOP(=O)(OCC)C(c1ccccc1)N(C(=O)NC(F)(F)F)c1cccc(F)c1 (stereo not given) | > 100 | > 100 | > 100 | > 100 | > 100 | > 100 | > 100 | > 100 | > 100 | > 100 |  |  |  |  |  |  |  |  |  | 
Nc1ccccc1.[C-]#[O+].[C-]#[O+].[C-]#[O+].[C-]#[O+].[C-]#[O+].[Cr] | > 10 | > 10 | > 10 | > 10 | > 10 | > 10 | > 10 | 9.79 | > 10 | > 10 | 3.28 | 3.26 | 4.03 | 6.17 | > 10 | 4.64 | 4.83 | 2.76 | 5.79 | 3.18
O=C(CCCCCC(=O)N1CC(CCl)c2ccc([N+](=O)[O-])cc21)N1CC(CCl)c2ccc([N+](=O)[O-])cc21 (stereo not given) | > 100 | > 100 | > 100 | > 100 | > 100 | 88.8 | > 100 | > 100 | > 100 | > 100 |  |  |  |  |  |  |  |  |  | 
CC(=O)OCc1cncn1S(=O)(=O)c1ccc(C)cc1 | > 100 | > 100 | > 100 | > 100 | > 100 | > 100 | > 100 | > 100 | > 100 | > 100 |  |  |  |  |  |  |  |  |  | 
CC(=O)c1ccccc1NCC(=O)Nn1cnc2ccc(S(=O)(=O)Nc3ccccc3C(C)=O)cc2c1=O | > 100 | > 100 | > 100 | > 100 | > 100 | > 100 | > 100 | > 100 | > 100 | > 100 |  |  |  |  |  |  |  |  |  | 
O=c1[nH]c(=O)n(C2CC(O)C(CO)O2)cc1NN=NCCCc1ccccc1 (stereo not given) | > 100 | > 100 | > 100 | > 100 | > 100 | > 100 | > 100 | > 100 | > 100 | > 100 |  |  |  |  |  |  |  |  |  | 
COC(=O)C1=C(OC(=O)/C=C/c2ccccc2)C(C(=O)OC)[C@@]2(O)[C@@H](C(=O)OC)[C@H](C)C[C@@H]1[C@@H]2C(=O)OC (stereo not given in full) | 52.6 | > 100 | 46.2 | 48.7 | > 100 | > 100 | > 100 | 41.5 | 43.9 | 54.1 |  |  |  |  |  |  |  |  |  | 
O=c1c2c3c(sc2nc2n1N=C(c1ccc(Cl)cc1)CS2)CCCC3 | > 100 | > 100 | > 100 | > 100 | > 100 | > 100 | > 100 | > 100 | > 100 | > 100 |  |  |  |  |  |  |  |  |  | 
C(/Cc1ccc2c(c1)OCO2)=N\NC1=NCCN1 | > 100 | > 100 | > 100 | > 100 | > 100 | > 100 | > 100 | > 100 | > 100 | > 100 |  |  |  |  |  |  |  |  |  | 
CCN(CC)C(=S)Nc1ccc(-c2cc3ccc(O)cc3oc2=O)cc1 | > 100 | > 100 | > 100 | 39.8 | 99.5 | 93.5 | > 100 | 81.9 | > 100 | 78.3 |  |  |  |  |  |  |  |  |  | 
C(=N\Nc1ccc(-c2nc3ccccc3[nH]2)cc1)/c1c(-c2ccc(Cc3ccccc3)cc2)[nH]c2ccccc12 | 44.6 | > 37.3 | > 54.7 | 30.9 | > 100 | > 100 | > 95.4 | 52.8 | 60.6 | > 59.5 |  |  |  |  |  |  |  |  |  | 
CSc1c(C#N)c(N)nc2c(N=Nc3ccc(Br)cc3)c(N)nn12 | 23.6 | 27.3 | 23.4 | 26 | 39.5 | 6.76 | 29.7 | 47.5 | 15.9 | 6.77 |  |  |  |  |  |  |  |  |  | 
Fc1ccc(N=C/C=C/Nc2ccc(F)cc2)cc1 | 27.2 | 38.5 | 25.9 | 19.5 | 36.2 | 9.17 | 4.32 | 26.4 | 30.1 | 31.1 |  |  |  |  |  |  |  |  |  | 
C/C(=C\c1ccccc1)C(=O)NCc1ccc(C(=O)NCCc2ccccc2)cc1 | > 81.9 | > 100 | 14.7 | > 100 | 66.1 | > 100 | > 100 | > 100 | > 100 | > 100 |  |  |  |  |  |  |  |  |  | 
COC(=O)/C=C\C(C#N)(C#N)N=Cc1ccccc1 | 9.71 | 3.85 | 4.38 | 35.1 | 21 | 3.36 | 5.54 | 9.03 | 30.9 | 4.97 |  |  |  |  |  |  |  |  |  | 
COC12CCCN1c1ccn(Cc3ccccc3)c(=O)c1C2=O (stereo not given) | > 100 | > 100 | > 100 | > 100 | > 100 | > 100 | > 100 | > 100 | > 100 | > 100 |  |  |  |  |  |  |  |  |  | 
C=CCc1cc(-c2cc(CC=C)c(O)c(CN(CC)CC)c2)cc(CN(CC)CC)c1O | 54.3 | > 100 | > 100 | > 100 | 98.7 | 70.6 | > 100 | > 100 | > 87.7 | > 100 |  |  |  |  |  |  |  |  |  | 
CCOC(=O)C[n+]1cccc(C2(c3cc4ccccc4[nH]3)OCCO2)c1 | > 100 | > 100 | > 100 | > 100 | > 100 | > 100 | > 100 | > 100 | > 100 | > 100 |  |  |  |  |  |  |  |  |  | 
COC1CC(OC2C(C)OC(OC3C(C)OC(OC4C(O)CC(O[C@H]5CC[C@@]6(C)C(=CC[C@]7(O)[C@@H]6C[C@@H](OC(C)=O)[C@@]6(C)[C@]7(O)CC[C@@]6(O)C(C)=O)C5)OC4C)CC3OC)CC2OC)OC(C)C1O (stereo not given in full) | > 12.5 | > 12.5 | > 12.5 | > 12.5 | > 12.5 | > 12.5 | > 12.5 | > 12.5 | > 12.5 | > 12.5 |  |  |  |  |  |  |  |  |  | 
C=C1c2nc3ccccc3n2C=C(c2ccc(C)cc2)N1c1ccc(C)cc1 | > 100 | > 100 | > 100 | > 72.9 | > 44.4 | > 74.3 | > 100 | > 78.9 | > 100 | > 100 |  |  |  |  |  |  |  |  |  | 
COC(OC)C1OCC(n2cc(F)c(=O)[nH]c2=O)C1O (stereo not given) | > 100 | > 100 | > 100 | > 100 | > 100 | > 100 | > 100 | > 100 | > 100 | > 100 |  |  |  |  |  |  |  |  |  | 
COc1ccc(/C=C/C(=O)c2cc(C(C)(C)C)c(O)c(C(C)(C)C)c2)cc1OC | 52.1 | > 49.6 | > 100 | 7.74 | 43 | 5.83 | 47.4 | 49.7 | 51.6 | > 100 |  |  |  |  |  |  |  |  |  | 
COc1cc2oc(=O)cc(C)c2cc1O | > 100 | > 100 | > 100 | > 100 | > 100 | > 100 | > 100 | > 100 | > 100 | > 100 |  |  |  |  |  |  |  |  |  | 
COc1ccc(NC(=O)CC(=O)n2nc(C)c(N=Nc3cccc(C)c3)c2C)cc1 | > 100 | > 100 | > 100 | > 100 | > 100 | > 100 | > 100 | > 100 | > 100 | > 100 |  |  |  |  |  |  |  |  |  | 
O=[N+]([O-])c1ccc(N/N=C/CC(O)(C(F)(F)F)C(F)(F)F)c([N+](=O)[O-])c1 | > 10 | > 10 | > 10 | > 10 | > 10 | > 10 | > 10 | > 10 | > 10 | 8.46 |  |  |  |  |  |  |  |  |  | 
CSc1cc(-c2ccccn2)nc(-c2ccccn2)c1 | 6.06 | > 100 | 12.5 | 12.9 | 0.955 | > 100 | 0.75 | 1 | 18.1 | 5 |  |  |  |  |  |  |  |  |  | 
CC1=NN(C(=O)CC(=O)Nc2ccccc2Cl)C(=O)C1N=Nc1ccc(S(=O)(=O)c2ccc(N=NC3C(=O)N(C(=O)CC(=O)Nc4ccccc4Cl)N=C3C)cc2)cc1 (stereo not given) | > 100 | > 100 | > 100 | > 100 | > 100 | > 100 | > 100 | > 100 | > 100 | > 100 |  |  |  |  |  |  |  |  |  | 
CCCC(O)c1cn(C(NC(=O)c2ccccc2)P(=O)(OCC)OCC)nn1 (stereo not given) | > 100 | > 100 | > 100 | > 100 | > 100 | > 100 | > 100 | > 100 | > 100 | > 100 |  |  |  |  |  |  |  |  |  | 
CCOC(=O)c1sc2nc(SC)nc3c2c1NCN3c1ccc(F)c(F)c1 | 11.7 | > 100 | 29.4 | > 64 | > 79.9 | > 100 | 64.1 | > 88.8 | 46.2 | 19.5 |  |  |  |  |  |  |  |  |  | 
